Laboratory results from PMC6631792, “In Vitro and In Vivo Anti-Breast Cancer Activities of Some Newly Synthesized 5-(thiophen-2-yl)thieno-[2,3-d]pyrimidin-4-one Candidates” (Molecules, 2019).
Like-named read-outs stand apart in the source and are kept apart here.

Tests used:
[1] = tested on: MCF-7 cells; assay: MTT cytotoxic assay on MCF-7 cells; type: cell-based, Human
Excerpt: “Human breast cancer cells (MCF-7) and normal non-tumorigenic MCF-10A cells were used throughout the work. Cells were obtained from ATCC, Gaithersburg, MD, USA. Standard MTT assay was used to explore the possible cytotoxic effects of the synthesized compounds [41, 42]. Medium composition, cultivation conditions and assay performance were exactly the same as our previous work. […] After MTT addition, the absorbance of the dissolved formazan crystals was read at 570 nm. The IC50 values were obtained with linear regression equations using Origin® 6.1 software (Origin Lab Corporation, Northampton, MA, USA)”.

[2] = Average animal weight in MCF-7 mouse xenograft model; type: in vivo; conditions: nude mice with MCF-7 xenograft, i.p.; for Average Weight of Animals in Grams after Days 0: day 0; for Average Weight of Animals in Grams after Days 2: day 2; for Average Weight of Animals in Grams after Days 4: day 4; for Average Weight of Animals in Grams after Days 6: day 6; for Average Weight of Animals in Grams after Days 8: day 8; for Average Weight of Animals in Grams after Days 10: day 10; for Average Weight of Animals in Grams after Days 12: day 12; for Average Weight of Animals in Grams after Days 14: day 14; for Average Weight of Animals in Grams after Days 16: day 16; for Average Weight of Animals in Grams after Days 18: day 18; for Average Weight of Animals in Grams after Days 20: day 20; for Average Weight of Animals in Grams after Days 22: day 22
Excerpt: “In this work, MCF-7 mouse xenograft model was used. The animal protocol was approved by the Institutional Animal Use Ethics and Care Committee of the University of Alabama at Birmingham (50-01-05-08B). Female athymic pathogen-free nude mice (nu/nu, 4–6 weeks) were purchased from Frederick Cancer Research and Development Center (Frederick, MD, USA). To establish MCF-7 human breast cancer xenografts, each of the female nude mice was first implanted with a 60-day (subcutaneously, s.c.) slow release estrogen pellet (SE-121, 1.7 mg […]/pellet; Innovative Research of America, Sarasota, FL, USA). After 24 h, grown cells were harvested, washed twice with serum-free medium, resuspended, and injected subcutaneously (5 million cells/0.2 mL) into the left inguinal area of the mice. During the experiment, animals were checked periodically and the percentages of tumor growth, as well as animal weights, were recorded. Every 48 h, the size of the tumor was recorded by measuring two perpendicular diameters of the tumor and tumor volume was calculated according to Wang et al. [46]”.
“Treated animals and control groups (7–10 mice/group) received different compounds and vehicles, respectively. The tested compounds were dissolved in PEG400:ethanol:saline (57.1:14.3:28.6, v/v/v), and injected intraperitoneal (i.p.) at doses of […], 3 d/wk for 3 weeks. The higher dose (10 µM/kg/d, 3 d/wk) inhibited MCF-7 xenograft tumor growth”.

Row | Compound | Average Weight of Animals in Grams after Days 0 [2] | Average Weight of Animals in Grams after Days 2 [2] | Average Weight of Animals in Grams after Days 4 [2] | Average Weight of Animals in Grams after Days 6 [2] | Average Weight of Animals in Grams after Days 8 [2] | Average Weight of Animals in Grams after Days 10 [2] | Average Weight of Animals in Grams after Days 12 [2] | Average Weight of Animals in Grams after Days 14 [2] | Average Weight of Animals in Grams after Days 16 [2] | Average Weight of Animals in Grams after Days 18 [2] | Average Weight of Animals in Grams after Days 20 [2] | Average Weight of Animals in Grams after Days 22 [2] | IC50 [1] | IC50 ([1]; Homo sapiens, MCF7)
1 | N.N.[Cl][Pt][Cl] [Cisplatin, reference compound] | – | – | – | – | – | – | – | – | – | – | – | – | 13.34 ± 0.11 µM | –
2 | CCOC(=O)Cn1cnc2scc(-c3cccs3)c2c1=O [Compound 3, ethyl 2-(4-oxo-5-(thiophen-2-yl)thieno[2,3-d]pyrimidin-3(4H)-yl)acetate] | 28 Grams | 28 Grams | 28 Grams | 28 Grams | 28.2 Grams | 27.9 Grams | 27.8 Grams | 27.7 Grams | 27.7 Grams | 27.6 Grams | 27.7 Grams | 27.7 Grams | – | 5.98 ± 0.099 µM
3 | O=C(Cn1cnc2scc(-c3cccs3)c2c1=O)NNC(=S)Nc1ccccc1 [Compound 10, 2-(2-(4-oxo-5-(thiophen-2-yl)thieno[2,3-d]pyrimidin-3(4H)-yl)acetyl)-N-phenylhydrazine-1-carbothioamide] | 24.9 Grams | 24.9 Grams | 24.9 Grams | 24.9 Grams | 24.8 Grams | 24.8 Grams | 24.8 Grams | 24.4 Grams | 24.4 Grams | 24.4 Grams | 24.4 Grams | 24.4 Grams | – | 3.55 ± 0.065 µM
4 | Milaplatin [reference compound] | – | – | – | – | – | – | – | – | – | – | – | – | 18.43 ± 0.13 µM | –

The next lines start with results.

Row | Average Weight of Animals in Grams after Days 0 [2] | Average Weight of Animals in Grams after Days 2 [2] | Average Weight of Animals in Grams after Days 4 [2] | Average Weight of Animals in Grams after Days 6 [2] | Average Weight of Animals in Grams after Days 8 [2] | Average Weight of Animals in Grams after Days 10 [2] | Average Weight of Animals in Grams after Days 12 [2] | Average Weight of Animals in Grams after Days 14 [2] | Average Weight of Animals in Grams after Days 16 [2] | Average Weight of Animals in Grams after Days 18 [2] | Average Weight of Animals in Grams after Days 20 [2] | Average Weight of Animals in Grams after Days 22 [2] | Compound | IC50 [1] | IC50 ([1]; Homo sapiens, MCF7)
5 | 22.9 Grams | 22.9 Grams | 22.9 Grams | 22.8 Grams | 22.8 Grams | 22.7 Grams | 22.8 Grams | 22.7 Grams | 22.9 Grams | 22.6 Grams | 22.6 Grams | 22.5 Grams | O=c1oc(Cn2cnc3scc(-c4cccs4)c3c2=O)nc2ccccc12 [Compound 5, 2-((4-oxo-5-(thiophen-2-yl)thieno[2,3-d]pyrimidin-3(4H)-yl)methyl)-4H-benzo[d]-[1,3] oxazin-4-one] | – | 4.76 ± 0.087 µM
6 | 25.3 Grams | 25.3 Grams | 25.2 Grams | 25.2 Grams | 25.2 Grams | 25.1 Grams | 25.1 Grams | 24.8 Grams | 24.7 Grams | 24.6 Grams | 24.5 Grams | 24.2 Grams | COc1cccc(C2SCC(=O)N2NC(=O)Cn2cnc3scc(-c4cccs4)c3c2=O)c1OC (stereo not drawn) [Compound 8, N-(2-(2,3-Dimethoxyphenyl)-4-oxothiazolidin-3-yl)-2-(4-oxo-5-(thiophen-2-yl)thieno[2,3-d]pyrimidin-3(4H)-yl)acetamide] | – | 1.26 ± 0.052 µM
